From patent US20210348086A1, “COMPOSITION” (Conopco Inc., d/b/a UNILEVER, priority 2018, published 2021)

Test system: bacterial pool: Burkholderia cepacia, Pseudomonas aeruginosa, Psuedomonas putida, Acinetobacter lwoffii
Experiment: Modified preservative challenge test (Ph. Eur. 5.1.3) in laundry liquid, Total Viable Count pour plate
Format: cell-based
Conditions: for Preservation of a laundry liquid composition (result in words): summary of the challenge test data set
Protocol: A modified challenge that complies with the current European Pharmacopoeia (Ph. Eur. Or EP) 5.1.3 criteria was performed on a subsample of both the unpreserved and each dosed product. The bacterial pool was added to each sample container at a ratio of 1:100. The final concentration of inoculum in the product should be between 5×10^5 and 5×10^6 CFU/G of test product. Each product is mixed with a sterile spatula to ensure a homogenous distribution of the inocula throughout the product. [table] Both the inoculum level and the level of microorganism within each sample was quantified using a Total Viable Count (TVC) pour plate method at 7, 14, 21 and 28 days. A 1:10 dilution was made with a subsample of each product, performed separately in Peptone (0.1%)/tween 80 (2%) neutralising agent. A 1:10 and 1:100 dilution of each subsample was performed and pour plates produced at each dilution using tryptone soya agar. Plates were incubated at 28° C. for 48 hours and then examined for growth. Visible colonies were counted with the aid of a Quebec Colony Counter and recorded for analysis against the challenge test criteria. During the removal of a subsample of product for TVC, a re-inoculation is performed at 7 and 14 days, reintroducing 5×10^6 CFU/G of bacteria before mixing using a sterile spatula to homogenise the re-inoculation.

[1] = 0.5% in Example 1 laundry liquid, 7 days
[2] = 0.5% in Example 1 laundry liquid, 14 days, re-inoculated at 7 days
[3] = 0.5% in Example 1 laundry liquid, 21 days, re-inoculated at 7 and 14 days
[4] = 0.5% in Example 1 laundry liquid, 28 days, re-inoculated at 7 and 14 days
[5] = 1.0% in Example 1 laundry liquid, 7 days
[6] = 1.0% in Example 1 laundry liquid, 14 days, re-inoculated at 7 days
[7] = 1.0% in Example 1 laundry liquid, 21 days, re-inoculated at 7 and 14 days
[8] = 1.0% in Example 1 laundry liquid, 28 days, re-inoculated at 7 and 14 days

SMILES	Microbial Log reduction [1]	Microbial Log reduction [2]	Microbial Log reduction [3]	Microbial Log reduction [4]	Microbial Log reduction [5]	Microbial Log reduction [6]	Microbial Log reduction [7]	Microbial Log reduction [8]	Preservation of a laundry liquid composition (result in words)
O=C(O)CC(O)(CC(=O)O)C(=O)O [Citric acid]	>5.59	<2.54	<2.56	<2.56	>5.59	>5.54	>5.56	>5.56	not capable of effectively preserving a laundry liquid composition
C=C(CC(=O)O)C(=O)O [Itaconic acid]	>5.59	>5.54	>5.56	>5.56	>5.59	>5.54	>5.56	>5.56	effective preservative
CC(O)C(=O)O (stereo not drawn) [Lactic acid]	>5.59	2.32	<2.56	<2.56	>5.59	>5.54	>5.56	>5.56	not capable of effectively preserving a laundry liquid composition
